Residues, ends and D or L forms follow the SMILES beside them. No end group written: not given here.
Key:
C57BL/6J mice = assay: In vivo efficiency of decoy peptides (Table 1; LPS challenge in mice); set-up: species or system mouse
Description: FIG. 4. Effect of select TRAP decoy peptides on TNF-α and IL-6 in blood following an ip LPS challenge. C57BL/6J mice were injected with TR5, TR6, or TR7 peptide or mock-treated 1 hour before injection of purified E. coli LPS. Peptides and LPS were injected to mice intraperitonealy 10 nmol or 1 μg per gram of animal weight, correspondingly.
FIG. 10. […] (A-E) C57BL/6J mice were injected i.p. with purified Escherichia coli K235 LPS (1 μg/g) or PBS. Peptides (10 nmol/g of animal weight) were injected i.p. (A, B, D, E) or i.v. (C) 1 h before (A, B, and C) or 30 min after (D, E) i.p. injection of LPS. Data in panels A and D show plasma IL-6 and TNF-α levels measured 2 h after LPS challenge. Peptide TM8/9 was used as a non-inhibitory control peptide. Data represent the means±s.e.m. for 6-12 blood samples obtained in at least three independent experiments. *p<0.01. (F, G) C57BL/6J mice were challenged i.p. with a lethal LPS dose (17.5 μg/g). Peptides (10 nmol/g) were injected i.p. 1 h before LPS challenge. […] The statistical significance of changes in mortality and survival time was determined by the Mantel Cox log-rank test using GraphPad Prism software (Version 5.04). *p<0.01.
Eight-week-old C57BL/6J mice were injected with 1 or 17.5 μg/g animal weight of E. coli K235 LPS i.p. Peptides reconstituted in PBS were administered i.p. or i.v. Control groups received equivalent volume of solvent (PBS). The blood samples were collected 1, 2, 4, and 8 h, or 2, 8, and 24 h after LPS challenge. The plasma samples were obtained and kept frozen until TNF-α and IL-6 were measured by ELISA. Survival of animals was monitored every 6-16 h after LPS challenge. All animal experiments were carried out with institutional approval.

TLR4 [1] = assay: LPS-induced cytokine mRNA expression in mouse macrophages (real-time RT-PCR); assay type: cell-based; conditions: for LPS-induced IFNβ and Rantes cytokine mRNA production / LPS-induced IL-1β mRNA production: 5 μM peptide; for LPS-induced IFNβ and Rantes cytokine mRNA production / LPS-induced IL-1β mRNA production / LPS-induced IL-1β, IFNβ, and RANTES mRNA / LPS-induced TNFα mRNA expression: LPS 10 ng/ml, 1 h
Description: C57BL/6J mice were obtained from The Jackson Laboratory (Bar Harbor, Me.). Primary peritoneal macrophages were obtained by peritoneal lavage 4 days after intraperitoneal injection (3 ml) of sterile 3% thioglycolate broth. Washed cells were resuspended in RPMI 1640 which contained 2% FBS, 1% penicillin:streptomycin and 2 mM L-glutamine. After plating, cells were incubated overnight at 37° C. and then washed with PBS to remove non-adherent cells. Cells were exposed to peptides 30 min before stimulation with a TLR agonist.
Total cellular RNA was isolated using Tripure from Roche (San Francisco, Calif.) following manufacture's protocol. RNA was then reverse transcribed using AMV Reverse Transcriptase from Promega (Madison, Wis.) with poly-T priming as per manufacturer's directions. cDNA was then quantified by real-time PCR using Applied Biosystems Fast SYBR Green PCR Master Mix and an ABI Prism 7500HT cycler. Primers used for detection: hypoxanthine phosphoribosyltransferase (HPRT) (forward: […] (SEQ ID NO:51), reverse: […] (SEQ ID NO:52)), TNFα (forward: […] (SEQ ID NO:53), reverse: […] (SEQ ID NO:54)), IL-1β (forward: […] (SEQ ID NO:55), reverse: […] (SEQ ID NO:56)), IFNβ (forward: […] (SEQ ID NO:57), reverse: CTCGGACCACCATCCAGG (SEQ ID NO:58)) and RANTES (forward: […] (SEQ ID NO:59), reverse: […] (SEQ ID NO:60)). The primers were designed using Primer Express 2.0 (Applied Biosystems). Using HPRT as reference, the ΔCt method was used to calculate relative gene expression. One-way ANOVA was preformed, as well as Dunnett's multiple comparison post hoc test with a p≦0.01 selected as the level of significance.
Total RNA was isolated with Nucleospin RNA II kits (Macherey-Nagel, Bethlehem, Pa.), followed by DNase digestion. cDNA was synthesized from 1 μg RNA using Goscript transcriptase (Promega), and subjected to real-time PCR with gene-specific primers for HPRT, TNF-α, IL-1β, IFNβ, and RANTES on H7900 ABI system using Fast SYBR Green master mix (Applied Biosystems, Foster City, Calif.).
To evaluate peptide-inhibitory activities, we first measured LPS-induced cytokine mRNA expression. […] […] Decoy peptide TM4 is derived from the BB loop of TRAM TIR; we previously identified this peptide as an effective TLR4 inhibitor (19).

TLR4 [2] = assay: LPS-induced cytokine secretion by mouse macrophages (ELISA/multiplex); assay type: cell-based; conditions: for LPS-induced Rantes production: 6 h supernatants; for Decrease in LPS-induced cytokine production (FIG. 2, 8 panels): LPS 10 ng/ml for 5, 6 or 24 h
Description: Cytokine secretion was measured in supernatant samples collected at 6 or 24 h time points and stored at −80° C. Samples were analyzed by a multiplex assay at the University of Maryland Baltimore Cytokine Core Facility using a Luminex 100 reader and Softmax Pro software, or by ELISA kits for mouse IL-6 or TNF-α from BioLegend (San Diego, Calif.) and LT-4000 microplate reader.
A total of 2×10^6 cells was plated in 12-well plates and treated with peptides for 30 min prior to LPS stimulation. TNF-α, IL-1β, IL-6, and IFN-β were measured using ELISA kits from BioLegend (San Diego, Calif.), as recommended by the manufacturer.

Compound: CC[C@H](C)[C@H](NC(=O)[C@H](CCCCN)NC(=O)[C@@H](NC(=O)[C@H](CCC(N)=O)NC(=O)[C@@H](N)CCCNC(=N)N)[C@@H](C)CC)C(=O)N[C@@H](Cc1c[nH]c2ccccc12)C(=O)N[C@@H](Cc1ccccc1)C(=O)N[C@@H](CCC(N)=O)C(=O)N[C@@H](CC(N)=O)C(=O)N[C@@H](CCCNC(=N)N)C(=O)N[C@@H](CCCNC(=N)N)C(=O)N[C@@H](CCSC)C(=O)N[C@@H](CCCCN)C(=O)N[C@@H](Cc1c[nH]c2ccccc12)C(=O)N[C@@H](CCCCN)C(=O)N[C@@H](CCCCN)C(=O)N[C@@H](CCC(=O)O)C(=O)N[C@@H](CC(C)C)C(=O)N[C@@H](CS)C(=O)N[C@@H](CCC(N)=O)C(=O)N[C@@H](C)C(=O)N[C@@H](CC(C)C)C(=O)N[C@@H](CO)C(=O)N[C@@H](CCCNC(=N)N)C(=O)N[C@@H](CO)C(=O)N[C@@H](Cc1c[nH]cn1)C(=O)N[C@@H](CS)C(=O)N[C@@H](CCCNC(=N)N)C(=O)O [TR5] (H-RQIKIWFQNRRMKWKKELCQALSRSHCR-OH)
- In vivo efficiency (C57BL/6J mice): yes, i.p.
- LPS-induced IFNβ and Rantes cytokine mRNA production (TLR4 [1]): significantly inhibited
- LPS-induced IL-1β mRNA production (TLR4 [1]): moderately inhibited
- LPS-induced IL-1β, IFNβ, and RANTES mRNA (TLR4 [1]; 20 μM peptide): stronger inhibition
- LPS-induced TNFα mRNA expression (TLR4 [1]; 20 μM peptide): inhibit potently
- LPS-induced Rantes production (TLR4 [2]): inhibited
- Decrease in LPS-induced cytokine production (FIG. 2, 8 panels) (TLR4 [2]): statistically significant

Compound: RQIKIWFQNRRMKWKKAAYPPELRFMYYVD [TR9]
- LPS-induced IFNβ and Rantes cytokine mRNA production (TLR4 [1]): significantly inhibited
- LPS-induced IL-1β mRNA production (TLR4 [1]): moderately inhibited
- LPS-induced IL-1β, IFNβ, and RANTES mRNA (TLR4 [1]; 20 μM peptide): stronger inhibition
- LPS-induced TNFα mRNA expression (TLR4 [1]; 20 μM peptide): inhibit potently
- LPS-induced Rantes production (TLR4 [2]): inhibited
- Decrease in LPS-induced cytokine production (FIG. 2, 8 panels) (TLR4 [2]): statistically significant

Compound: RQIKIWFQNRRMKWKKCLQDAIDHSGFT [TF5]
- In vivo efficiency (C57BL/6J mice): Yes, i.p.
- LPS-induced (TLR4-mediated) cytokine mRNA expression (TLR4 [1]; 5 or 20 μM peptide 30 min before LPS, 1 or 5 h): inhibit
- LPS-induced cytokine secretion (TLR4 [2]; 5 or 20 μM peptide, LPS 100 ng/ml, supernatants 24 h): inhibit

Compound: RQIKIWFQNRRMKWKKEGSQASLRCF [TR3]
- LPS-induced IFNβ and Rantes cytokine mRNA production (TLR4 [1]): significantly inhibited
- LPS-induced IL-1β mRNA production (TLR4 [1]): moderately inhibited
- LPS-induced IL-1β, IFNβ, and RANTES mRNA (TLR4 [1]; 20 μM peptide): stronger inhibition
- LPS-induced TNFα mRNA expression (TLR4 [1]; 20 μM peptide): inhibit potently
- LPS-induced Rantes production (TLR4 [2]): inhibited
- Decrease in LPS-induced cytokine production (FIG. 2, 8 panels) (TLR4 [2]): statistically significant

Compound: RQIKIWFQNRRMKWKKGGFYQVKEAVIHY [TR11]
- LPS-induced IFNβ and Rantes cytokine mRNA production (TLR4 [1]): significantly inhibited
- LPS-induced IL-1β mRNA production (TLR4 [1]): moderately inhibited
- LPS-induced IL-1β, IFNβ, and RANTES mRNA (TLR4 [1]; 20 μM peptide): stronger inhibition
- LPS-induced TNFα mRNA expression (TLR4 [1]; 20 μM peptide): inhibit potently
- LPS-induced Rantes production (TLR4 [2]): inhibited
- Decrease in LPS-induced cytokine production (FIG. 2, 8 panels) (TLR4 [2]): statistically significant

Compound: RQIKIWFQNRRMKWKKPGFLRDPWCKYQML [TR6]
- In vivo efficiency (C57BL/6J mice): yes, i.p.
- LPS-induced IFNβ and Rantes cytokine mRNA production (TLR4 [1]): significantly inhibited
- LPS-induced IL-1β mRNA production (TLR4 [1]): moderately inhibited
- LPS-induced transcriptional activation of IL-1β and IFN-β genes (TLR4 [1]; 20 μM peptide): blocked
- LPS-induced IL-1β, IFNβ, and RANTES mRNA (TLR4 [1]; 20 μM peptide): stronger inhibition
- LPS-induced TNFα mRNA expression (TLR4 [1]; 20 μM peptide): inhibit potently
- LPS-induced Rantes production (TLR4 [2]): inhibited
- Decrease in LPS-induced cytokine production (FIG. 2, 8 panels) (TLR4 [2]): statistically significant
